Measurements taken from PubChem BioAssay (NCI).
Where “and” joins values, the source holds several entries; their conditions need not be identical. Equal values may be shown once.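 Compound exposure: 48 hours, 5 concentrations, 96-well plates. At the GI50, growth is halved. TGI denotes the concentration required for complete inhibition of growth.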

Tests used:
Experiment in all cases: NCI tumour cell line growth inhibition, 48 h
A498 renal = tested on: A498 renal
COLO 205 colon = tested on: COLO 205 colon
HOP-62 NSCLC = tested on: HOP-62 NSCLC
LOX IMVI melanoma = tested on: LOX IMVI melanoma
OVCAR-5 ovarian = tested on: OVCAR-5 ovarian
SK-MEL-2 melanoma = tested on: SK-MEL-2 melanoma
SNB-75 CNS = tested on: SNB-75 CNS
SR leukemia = tested on: SR leukemia
SW-620 colon = tested on: SW-620 colon
TK-10 renal = tested on: TK-10 renal
U251 CNS = tested on: U251 CNS

Row | Compound | TGI (A498 renal) | TGI (COLO 205 colon) | TGI (HOP-62 NSCLC) | TGI (LOX IMVI melanoma) | TGI (OVCAR-5 ovarian) | TGI (SK-MEL-2 melanoma) | GI50 (SNB-75 CNS) | TGI (SNB-75 CNS) | TGI (SR leukemia) | TGI (SW-620 colon) | TGI (TK-10 renal) | TGI (U251 CNS)
1 | CN(C)C1COC2Cc3ccccc3C1O2 (stereo unspecified) | > 100 µM | > 100 µM | > 100 µM | > 100 µM | > 100 µM | > 100 µM | 3.16 µM and 11.2 µM | 83.5 µM and 79.7 µM | > 100 µM | > 100 µM | > 100 µM | > 100 µM
2 | O=C(NO)c1ccc(OCc2ccccc2)cc1 | 43.4 µM | 77.6 µM | > 100 µM | 55.8 µM | > 100 µM | > 100 µM | – | > 100 µM | 90.9 µM | > 100 µM | > 100 µM | > 100 µM
3 | CN(C)CC1CN(C(=O)Nc2ccccc2)C(=N)O1 (stereo unspecified) | > 100 µM | > 100 µM | > 100 µM | > 100 µM | > 100 µM | > 100 µM | – | > 100 µM | > 100 µM | > 100 µM | > 100 µM | > 100 µM
4 | COC(=O)c1cc(/C=C2\Cc3cc4c(cc3C2=O)CCC4)cc2c1CCC2 | > 100 µM | > 100 µM | > 100 µM | > 100 µM | > 100 µM | > 100 µM | – | > 100 µM | > 100 µM | > 100 µM | > 100 µM | > 100 µM
5 | COc1cc(OC)nc(NC(=O)NS(=O)(=O)c2cccc3ncn(C)c(=O)c23)n1 | > 100 µM | > 100 µM | > 100 µM | > 100 µM | > 100 µM | > 100 µM | – | > 100 µM | > 100 µM | > 100 µM | > 100 µM | > 100 µM
6 | CC1(C)OC([C@H](O)CO)C([C@H]2NCCS2)O1 (stereo partly specified) | > 100 µM | > 100 µM | > 100 µM | > 100 µM | > 100 µM | > 100 µM | – | > 100 µM | > 100 µM | > 100 µM | > 100 µM | > 100 µM
7 | O=C1/C(=C/c2ccc(O)cc2)CCc2ccccc21 | 44.5 µM | 40.5 µM | 55.4 µM | 49.2 µM | > 91 µM | 36 µM | – | > 70.7 µM | 16 µM | 40.1 µM | > 95.9 µM | 69.7 µM
8 | CC1(C)CC[C@]2(C(=O)O)CC[C@]3(C)C(=CC[C@@H]4[C@@]5(C)CC[C@@H]6OC(C)(C)OC[C@@]6(C)[C@@H]5CC[C@]43C)[C@H]2C1 | 51.7 µM | 28.8 µM | 22.9 µM | 20.7 µM | 32.2 µM | 32.6 µM | – | 27.7 µM | 34 µM | 29 µM | 32.7 µM | 20.4 µM
9 | COc1cc(C2c3cc4c(cc3OC(O)C2C)OCO4)cc(OC)c1O (stereo unspecified) | 80.6 µM | 45.8 µM | 98.9 µM | > 100 µM | > 100 µM | > 100 µM | – | 26 µM | > 100 µM | > 100 µM | 57.4 µM | 62.8 µM
10 | CO[C@H]1C[C@H](O[C@H]2CC[C@]3(C=O)[C@H]4CC[C@]5(C)[C@@H](C6=CC(=O)OC6)CC[C@]5(O)[C@@H]4CC[C@]3(O)C2)O[C@H](C)[C@H]1O[C@@H]1O[C@H](CO[C@@H]2O[C@H](CO)[C@@H](O)[C@H](O)[C@H]2O)[C@@H](O)[C@H](O)[C@H]1O | 0.533 µM | 0.348 µM | 0.0388 µM | 0.137 µM | 0.199 µM | 0.907 µM | – | 0.437 µM | 0.419 µM | 0.179 µM | 0.133 µM | 0.202 µM
11 | CC1=C/C(=C(/c2ccc(O)c(C)c2)c2ccccc2C(=O)O)C=CC1=O | 32.8 µM | 34.3 µM | 38 µM | 35.9 µM | 42.3 µM | 38.5 µM | – | 35.8 µM | 47 µM | 39 µM | 31.1 µM | 32.1 µM
12 | CC(=O)O[C@H]1C(=O)[C@@]2(C)[C@H]([C@H](OC(=O)c3ccncc3)[C@]3(O)C[C@H](OC(=O)[C@H](O)[C@@H](NC(=O)c4ccccc4)c4ccccc4)C(C)=C1C3(C)C)[C@]1(OC(C)=O)CO[C@@H]1C[C@@H]2O | > 25 µM | > 20.1 µM | > 25 µM | > 25 µM | > 25 µM | > 25 µM | – | > 18.1 µM | > 25 µM | > 25 µM | > 25 µM | > 23.3 µM
13 | Nc1nc(Cl)cc(NCC2(CO)CC(Cc3ccccc3)C2)n1 (stereo unspecified) | 78.7 µM | > 59.6 µM | > 100 µM | > 100 µM | > 100 µM | > 72.5 µM | – | > 100 µM | > 56.1 µM | > 100 µM | > 96.5 µM | > 100 µM
14 | N#C/C(N)=C(\C#N)N=CNc1ccccc1N | > 100 µM | > 100 µM | > 100 µM | > 100 µM | > 100 µM | > 100 µM | – | > 100 µM | > 100 µM | > 100 µM | > 100 µM | > 100 µM
15 | O=C1NCN(c2ccccc2)C12CCN(CCCSc1ccc(F)cc1)CC2 | 42.9 µM | 3.24 µM | 97 µM | 37.1 µM | > 100 µM | 43.3 µM | – | > 86.1 µM | > 81.7 µM | > 100 µM | 99.1 µM | > 100 µM
